Measured values reported in PMC11571012, “Synthesis and Preclinical Evaluation of a Bispecific PSMA-617/RM2 Heterodimer Targeting Prostate Cancer” (ACS Medicinal Chemistry Letters, 2024).
Like-named read-outs stand apart in the source and are kept apart here.

Assays:
[1] = Radio RP-HPLC analysis (elution order); details: radiolabeled ligands; Chromolith RP-18e, 0−100% AcCN (0.1% TFA) in 6 min, 4 mL/min; said to agree with logD
PSMA (LNCaP, PC-3 PIP) = details: read-out: Ki, LNCaP (literature), LNCaP cells, literature data, ref 2 (SI); cited from earlier work
Description: This mixture was removed after incubation and the wells were washed on a multiscreen vacuum manifold (Millipore, Billerica, MA) three times with PBS. The following detection of cell-bound radioactivity was measured using a gamma counter (Packard Cobra II, GMI, Minnesota, USA).

[2] = molecular target: T1, PSMA receptor in LNCaP cells (PSMA+, GRPR-) (Homo sapiens, UniProt Q04609); assay: Cell-based competitive binding assay in LNCaP cells against [68Ga]Ga-PSMA-10; details: 10^5 cells/well, against [68Ga]Ga-PSMA-10 0.75 nM, analyte 0–5000 nM, 45 min, gamma counter, quadruplicate
T1 construct: Briefly, LNCaP 10 5 cells per well; host or cells: LNCaP cells
T1 sequence (Q04609 whole entry): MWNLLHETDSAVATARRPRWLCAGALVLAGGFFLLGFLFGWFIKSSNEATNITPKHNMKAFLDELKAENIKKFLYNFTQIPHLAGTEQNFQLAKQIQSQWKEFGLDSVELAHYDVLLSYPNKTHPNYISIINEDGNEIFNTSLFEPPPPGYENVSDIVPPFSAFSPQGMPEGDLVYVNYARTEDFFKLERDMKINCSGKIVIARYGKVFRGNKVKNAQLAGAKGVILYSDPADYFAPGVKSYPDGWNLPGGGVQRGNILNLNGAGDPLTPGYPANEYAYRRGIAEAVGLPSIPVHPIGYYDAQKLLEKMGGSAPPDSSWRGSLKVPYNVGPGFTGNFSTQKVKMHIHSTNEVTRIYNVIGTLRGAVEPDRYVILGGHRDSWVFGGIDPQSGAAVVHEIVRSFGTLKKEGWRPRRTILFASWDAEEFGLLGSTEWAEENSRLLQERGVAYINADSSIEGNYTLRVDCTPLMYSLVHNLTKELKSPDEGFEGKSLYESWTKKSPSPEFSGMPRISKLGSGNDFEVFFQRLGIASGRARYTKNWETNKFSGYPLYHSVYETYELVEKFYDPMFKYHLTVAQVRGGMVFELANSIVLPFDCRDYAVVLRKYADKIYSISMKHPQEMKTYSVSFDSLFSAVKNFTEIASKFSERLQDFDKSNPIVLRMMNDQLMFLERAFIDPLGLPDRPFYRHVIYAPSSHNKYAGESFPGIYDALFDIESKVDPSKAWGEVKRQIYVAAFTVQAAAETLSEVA
Description: Each value was measured in quadruplicate.
Cell Culture & cell assays
In vitro and in vivo experiments were performed with the following cell lines: the GRPR positive PC -3 cells
supplemented with 10% fetal calf serum and 2 mM L -glutamine (Invitrogen, Carlsbad, CA, USA). Cells
were grown at 37 °C in humidified air with 5% CO 2. Trypsin-ethylenediaminetetraacetic acid (trypsin -
EDTA; 0.25% tryps in, 0.02% EDTA, Invitrogen) was used for cell harvesting.
Determination of Binding Affinity in LNCaP and PC -3 cells
3-5 Briefly, LNCaP 10 5 cells per well
PSMA-10, precursor purchased from ABX, Radeberg , Germany) and an ascending series of 12 different
45 min). This mixture was removed after incubation and the wells were washed on a multiscreen vacuum
manifold (Millipore, Billerica, MA) three times with PBS. The following detection of cell-bound
radioactivity was measured using a gamma counter (Packard Cobra II, GMI, Minnesota, USA).
fitted with a nonlinear regression algorithm (GraphPad Software) to determine the 50% inhibitory
concentration (IC50) values.
min. After incubation the mixture was removed, the wells were washed with PBS and the cell -bound
radioactivity was measured using a gamma counter (Hidex AMG - Automated Gamma Counter).

PC-3 tumors = details: in vivo; cited from earlier work
[3] = molecular target: T1, PSMA receptor in LNCaP cells (PSMA+, GRPR-); details: standard used at C = 0.75 nM; no reference given; read-out: IC50 of standard radioligand (PSMA); cited from earlier work

In the case of `O=C(O)CC[C@H](NC(=O)N[C@@H](CCCCNC(=O)[C@H](Cc1ccc2ccccc2c1)NC(=O)[C@H]1CC[C@H](CNC(=O)CN2CCN(CC(=O)O)CCN(CC(=O)O)CCN(CC(=O)O)CC2)CC1)C(=O)O)C(=O)O` [PSMA-617 (1), vipivotide tetraxetan], the “Elution order in radio RP-HPLC” value [1] is listed as “eluted first”, the Ki (PSMA (LNCaP, PC-3 PIP)) is listed as 2.34 nM and the IC50 [2] is listed as 6.41 nM.

In the case of `CC(C)C[C@H](NC(=O)C[C@H](O)[C@H](CC(C)C)NC(=O)[C@H](Cc1c[nH]cn1)NC(=O)CNC(=O)[C@@H](NC(=O)[C@H](C)NC(=O)[C@H](Cc1c[nH]c2ccccc12)NC(=O)[C@H](CCC(N)=O)NC(=O)[C@@H](Cc1ccccc1)NC(=O)CN1CCC(NC(=O)CN2CCN(CC(=O)O)CCN(CC(=O)O)CCN(CC(=O)O)CC2)CC1)C(C)C)C(N)=O` [[68Ga]Ga-RM2] [metal not drawn], the Kidneys uptake (PC-3 tumors) is listed as 3.34 ± 0.54 % ID/g.

For “[Glu-urea-Lys(Ahx)]2-HBED-CC [[^68Ga]Ga-PSMA-10]”, the IC50 [3] is given as 3.8 ± 1.8 nM.
